What all share (experiment): Mass spectrometry of proteins pulled down with biotinylated SA‐E (SA‐Eb) from human plasma
What all share (assay type): binding

Experiment [1] concerns the target T1, human plasma proteins (Homo sapiens, UniProt O14791).
T1 construct: incubated with 50% pooled human plasma at 37 °C for 2 h; from tissue; host or cells: pooled human plasma (50%)
T1 sequence (O14791 28-398): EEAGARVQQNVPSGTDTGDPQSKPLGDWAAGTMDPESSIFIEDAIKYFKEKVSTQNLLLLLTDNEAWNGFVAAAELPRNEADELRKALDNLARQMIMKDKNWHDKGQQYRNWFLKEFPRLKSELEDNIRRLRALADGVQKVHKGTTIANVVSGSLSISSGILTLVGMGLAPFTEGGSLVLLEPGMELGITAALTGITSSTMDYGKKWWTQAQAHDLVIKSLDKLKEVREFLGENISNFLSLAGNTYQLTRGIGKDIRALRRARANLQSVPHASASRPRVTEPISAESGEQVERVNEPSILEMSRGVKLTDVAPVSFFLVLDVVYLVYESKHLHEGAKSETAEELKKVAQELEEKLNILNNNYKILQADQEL
Here is the method: (§1) Samples were prepared for mass spectrometry analysis via a pull‐down of a biotinylated version of the SA‐E probe (SA‐Eb, 100 µM) incubated with 50% pooled human plasma at 37 °C for 2 h. Before incubation with the SA‐Eb‐plasma mixture, magnetic streptavidin‐coated beads (Dynabeads MyOne Streptavidin T1, Invitrogen, 65601) were washed with PBS (10 mM, pH 7.4) then blocked with 1% casein equal to the total initial volume of beads for 15 min at room temperature. After blocking, beads were washed again with PBS. Beads were then combined with SA‐Eb‐plasma solution, 25 µL beads to 200 µL mixture. This mixture was then incubated at room temperature for 30 min. After incubation, the remaining solution was removed, and the beads were washed five times with PBS. Bound SA‐Eb was eluted from beads in 30 µL 0.5% Triton X‐100 solution. Magnetic beads were then removed, and the elution was collected for analysis. For plasma control, the incubation with SA‐Eb step was skipped, and 50% plasma in PBS was incubated with beads and washed and eluted using the same method as the SA‐Eb‐plasma solution. The elution solutions were then analyzed by the Proteomics Shared Resource facility at Oregon Health & Science University (See Supporting Information for details).
(§2) Sample Preparation. Eluted plasma samples were dried down and stored at -80°C. Samples were thawed at room temperature for 10 min, and 75 µL of SDS protein extraction buffer (5% SDS, 50 mM […]; TEAB) was added to each sample. Samples were shaken in a Thermo mixer for 10 minutes at room temperature and centrifuged at 10,000 g for 5 min. Each sample was transferred from a 0.5 mL tube to a 1.5 mL LoBind centrifuge tube. Samples were reduced by adding 3.4 µL of 0.5 M dithiothreitol and incubated at 95 °C for 10 min. Samples were alkylated by the addition of 6.8 µL of 0.5 M iodoacetamide and were incubated at room temperature for 30 min in the dark. Samples were then acidified by the addition of 8.52 µL of 12% phosphoric acid, and 562 µL of SDS protein binding buffer (90% methanol, 100 mM TEAB, pH 7.51). Samples were transferred 165 µL at a time to S-trap micro columns (Protifi, Farmingdale, NY) and inserted into 1.5 mL of polypropylene tubes. Samples were centrifuged at 4,000 g for 3 min between each addition of the sample. S-trap columns were washed 6 times using 150 µL of 90% methanol containing 100 mM of TEAB followed by centrifugation at 4,000g for 3 min between each wash step. S-trap columns containing the bound sample proteins were transferred to 1.5 mL LoBind centrifuge tubes and 40 µL of 80 ng/µL sequencing grade modified trypsin (Pierce TM Trypsin Protease MS-Grade, XG348166) in 50 mM TEAB was added. S-trap columns were loosely capped, and digestion was performed at 37°C overnight in a humidified chamber.
(§3) After completion of digestion, peptides were eluted by sequential addition of 40 µL of TEAB, 40 µL of 0.2% aqueous formic acid, and 40 µl of 50% acetonitrile, 0.2% formic acid, with centrifugation at 4,000 g for 4 min between each addition of elution buffer. The elution fractions were combined and then dried by vacuum centrifugation. Samples were reconstituted by adding 20 µL of 5% formic acid, shaking at 37 °C, and spinning at 15,000 g for 5 min. The supernatant of each sample was transferred to an auto-sample vial.
(§4) Data analysis. Mass spectrometry data from all samples were processed using COMET/PAWS against Uniprot_Human_database. Comet (v. 2016.01, rev. 3)^8 was used to search MS2 Spectra against a January 2023 version of canonical FASTA protein database containing human uniprot sequences, and concatenated sequence-reversed entries to estimate error thresholds and 179 common contaminant sequences and their reversed forms. The database processing was performed using python scripts available at https://github.com/pwilmart/fasta_utilities.git and Comet results were processed using the PAW pipeline2 from https://github.com/pwilmart/PAW_pipeline.git.

Experiment [2] deals with T2, human plasma proteins (Homo sapiens, UniProt P02647).
T2 construct: incubated with 50% pooled human plasma at 37 °C for 2 h; from tissue; host or cells: pooled human plasma (50%)
How it is done:
as §1, §2, §3, §4

Experiment [3] addresses T3, human plasma proteins (Homo sapiens, UniProt P02656).
T3 construct: incubated with 50% pooled human plasma at 37 °C for 2 h; from tissue; host or cells: pooled human plasma (50%)
Here is the method: as §1, §2, §3, §4

The target in experiment [4] is T4, human plasma proteins (Homo sapiens, UniProt P02768).
T4 construct: incubated with 50% pooled human plasma at 37 °C for 2 h; from tissue; host or cells: pooled human plasma (50%)
The conditions noted are these: for Total Counts, Albumin: pull‐down with biotinylated SA-E. Here is the method:
as §1, §2, §3, §4

The target of experiment [5] is T5, human plasma proteins (Homo sapiens, UniProt O95445).
T5 construct: incubated with 50% pooled human plasma at 37 °C for 2 h; from tissue; host or cells: pooled human plasma (50%)
Here is the method:
as §1, §2, §3, §4

Experiment [6] deals with T6, human plasma proteins (Homo sapiens, UniProt P06727).
T6 construct: incubated with 50% pooled human plasma at 37 °C for 2 h; from tissue; host or cells: pooled human plasma (50%)
T6 sequence (P06727 21-396): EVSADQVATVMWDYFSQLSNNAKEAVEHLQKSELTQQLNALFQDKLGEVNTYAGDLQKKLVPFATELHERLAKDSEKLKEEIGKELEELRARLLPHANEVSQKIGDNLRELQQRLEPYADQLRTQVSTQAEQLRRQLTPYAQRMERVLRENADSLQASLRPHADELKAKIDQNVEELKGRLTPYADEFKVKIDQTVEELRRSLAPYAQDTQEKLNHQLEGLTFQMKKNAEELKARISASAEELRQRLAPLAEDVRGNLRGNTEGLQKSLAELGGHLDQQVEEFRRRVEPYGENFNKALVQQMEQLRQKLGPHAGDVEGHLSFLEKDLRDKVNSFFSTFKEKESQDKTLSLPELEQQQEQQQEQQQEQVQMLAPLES
How it is done:
as §1, §2, §3, §4

Where a SMILES comes first, the peptide text is derived from it. The star is where a group is joined. Palmitoyl = CCCCCCCCCCCCCCCC(=O)*

T2 sequence (P02647 19-267): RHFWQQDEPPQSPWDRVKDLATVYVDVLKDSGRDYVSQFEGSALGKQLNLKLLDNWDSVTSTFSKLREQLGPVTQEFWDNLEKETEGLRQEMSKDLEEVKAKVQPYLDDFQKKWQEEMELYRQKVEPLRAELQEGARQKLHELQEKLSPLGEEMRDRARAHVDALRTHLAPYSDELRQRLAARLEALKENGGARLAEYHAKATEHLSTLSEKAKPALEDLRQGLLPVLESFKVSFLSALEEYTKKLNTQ
T5 sequence (O95445 whole entry): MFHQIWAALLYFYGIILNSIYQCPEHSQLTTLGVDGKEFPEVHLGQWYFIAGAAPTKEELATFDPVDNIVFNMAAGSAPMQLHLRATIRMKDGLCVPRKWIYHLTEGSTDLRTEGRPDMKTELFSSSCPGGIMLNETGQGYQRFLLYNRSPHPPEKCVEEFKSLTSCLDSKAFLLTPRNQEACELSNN
T3 sequence (P02656 21-99): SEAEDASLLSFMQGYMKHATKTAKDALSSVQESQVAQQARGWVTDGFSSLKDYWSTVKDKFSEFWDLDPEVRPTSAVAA
T4 sequence (P02768 25-609): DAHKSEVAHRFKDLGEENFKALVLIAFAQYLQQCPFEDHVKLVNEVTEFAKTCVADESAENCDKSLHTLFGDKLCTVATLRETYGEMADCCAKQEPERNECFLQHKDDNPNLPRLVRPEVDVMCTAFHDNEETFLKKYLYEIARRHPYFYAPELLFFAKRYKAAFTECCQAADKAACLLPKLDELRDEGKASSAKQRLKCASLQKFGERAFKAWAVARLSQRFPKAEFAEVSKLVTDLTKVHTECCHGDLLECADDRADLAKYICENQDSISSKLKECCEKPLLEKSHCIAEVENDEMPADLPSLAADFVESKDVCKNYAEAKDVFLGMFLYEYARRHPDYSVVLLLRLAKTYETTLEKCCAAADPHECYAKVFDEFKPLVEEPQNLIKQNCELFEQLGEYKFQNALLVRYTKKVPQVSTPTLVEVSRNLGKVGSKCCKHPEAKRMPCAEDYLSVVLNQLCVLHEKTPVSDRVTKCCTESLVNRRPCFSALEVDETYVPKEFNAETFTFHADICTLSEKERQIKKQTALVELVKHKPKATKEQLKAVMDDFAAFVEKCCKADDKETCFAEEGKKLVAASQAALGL

Turning to `CCCCCCCCCCCCCCCC(=O)NCC(=O)NCC(=O)NCC(=O)N[C@@H](Cc1c[nH]cn1)C(=O)N[C@@H](C)C(=O)N[C@@H](C)C(=O)N[C@@H](CC(N)=O)C(=O)NCC(=O)N[C@@H](CCC(=O)O)C(=O)N[C@@H](CCC(=O)O)C(=O)N[C@@H](CS)C(=O)N[C@@H](CCC(=O)O)C(=O)O` [SA‐E] (Palmitoyl-GGGHAANGEECE-OH), in experiment [1] (replicate 1), the “Percentage, Apolipoprotein L1” value was 0.2% and the “Total Counts, Apolipoprotein L1” value is recorded as 7. In experiment [1] (replicate 2), the “Percentage, Apolipoprotein L1” value is 0.2% and the “Total Counts, Apolipoprotein L1” value worked out at 7. Moreover, in experiment [2] (replicate 1), the “Percentage, Apolipoprotein A-I” value amounted to 15.7% and the “Total Counts, Apolipoprotein A-I” value is 560. Moreover, in experiment [2] (replicate 2), the “Percentage, Apolipoprotein A-I” value turned out to be 21.1% and the “Total Counts, Apolipoprotein A-I” value turned out to be 600. Besides, in experiment [3] (replicate 1), the “Percentage, Apolipoprotein C-III” value came to 0.1% and the “Total Counts, Apolipoprotein C-III” value stood at 4. In experiment [3] (replicate 2), the “Percentage, Apolipoprotein C-III” value worked out at 0.2% and the “Total Counts, Apolipoprotein C-III” value is 5. In addition, in experiment [4] (replicate 1), the “Total Counts, Albumin” value is given as 1215 and the “Percentage, Albumin” value is listed as 34.0%. In addition, in experiment [4] (replicate 2), the “Total Counts, Albumin” value came out at 923 and the “Percentage, Albumin” value was found to be 32.5%. Also, in experiment [5] (replicate 1), the “Percentage, Apolipoprotein M” value is given as 0.3% and the “Total Counts, Apolipoprotein M” value was found to be 11. In addition, in experiment [5] (replicate 2), the “Percentage, Apolipoprotein M” value was determined as 0.4% and the “Total Counts, Apolipoprotein M” value turned out to be 12. Also, in experiment [6] (replicate 1), the “Percentage, Apolipoprotein A-IV” value was found to be 1.1% and the “Total Counts, Apolipoprotein A-IV” value is 39. Moreover, in experiment [6] (replicate 2), the “Percentage, Apolipoprotein A-IV” value worked out at 0.6% and the “Total Counts, Apolipoprotein A-IV” value came out at 16.

The values are drawn from article PMC12801355, “Peptide Amphiphiles Hitchhike on Endogenous Biomolecules for Enhanced Cancer Imaging and Therapy” (Advanced Materials (Deerfield Beach, Fla.), 2025).
